Experimental data reported in patent US20180271923A1, “COMPOSITION FOR PREVENTING OR TREATING MENOPAUSAL DISORDERS, CONTAINING TETRAGONIA TETRAGONOIDES (PALL.) KUNTZE EXTRACT” (Korea Institute of Oriental Medicine, priority 2015, published 2018).
Marks after values point to notes of the source that are not given here.

Tests used:
Format in all cases: in vivo
[1] = test system: ovariectomized rats; assay: Body weight, visceral fat, uterus weight and calorie uptake at end of experiment in ovariectomized rats on high-fat diet
Description: In order to confirm efficacies of the Tetragonia tetragonoides (Pall.) Kuntze extract prepared according to Preparation Example 1 for ameliorating menopausal obesity, rats were ovariectomized and, at the same time, obesity-induced. The rats were fed with the Tetragonia tetragonoides (Pall.) Kuntze extract, and effects of the extract on visceral fat were evaluated. Specifically, the ovariectomized rats were fed with a high-fat diet (HFD) consisting of 40% energy (En %) of carbohydrate, 20 En % of protein, and 40 En % of fat, along with dextrin. The high-fat diet was made to contain 2% (w/w) of the Tetragonia tetragonoides (Pall.) Kuntze extract, and the rats were offered ad libitum access to the diet for 8 weeks. On the other hand, in the positive-control, the ovariectomized rats received 17β-estradiol which is a hormone preparation and were fed with a diet in which the high fat diet is mixed with dextrin for 8 weeks. Then, at the end of the experiment, a body weight, a mass of visceral fat including peri-uterine fat and fat in retroperitoneum, an energy consumption, and the like were measured.

[2] = test system: ovariectomized rats; assay: Energy consumption by indirect calorimetry in ovariectomized rats; details: indirect calorimetry after 8 weeks, 6 hours fasting, n = 12, means ± SD
Text: Specifically, the ovariectomized rats were fed with a high-fat diet (HFD) consisting of 40% energy (En %) of carbohydrate, 20 En % of protein, and 40 En % of fat, along with dextrin. The high-fat diet was made to contain 2% (w/w) of the Tetragonia tetragonoides (Pall.) Kuntze extract, and the rats were offered ad libitum access to the diet for 8 weeks. On the other hand, in the positive-control, the ovariectomized rats received 17β-estradiol which is a hormone preparation and were fed with a diet in which the high fat diet is mixed with dextrin for 8 weeks. Then, at the end of the experiment, a body weight, a mass of visceral fat including peri-uterine fat and fat in retroperitoneum, an energy consumption, and the like were measured. The energy consumption was analyzed by indirect calorimetry. Specifically, after the Tetragonia tetragonoides (Pall.) Kuntze extract was fed for 8 weeks, and a fasting state of 6 hours was induced, the energy consumption was measured at the time of beginning of a dark period in light/dark cycle. In order to analyze calorimetric parameters, a metabolic chamber (airflow=800 ml/min) equipped with a computer-controlled O2 and CO2 measurement system (BIOPAC Systems, Inc., Goleta, Calif.) was utilized, and respiratory quotient (RQ) and resting energy expenditure (REE) were calculated using equations. An average oxygen uptake (VO2) and an average carbon dioxide emission (VCO2) were measured over 30 minutes. After the experiment, data were averaged at 1 minute intervals and the VO2 and VCO2 values were calibrated to a body size (kg^0.75). Oxidation of carbohydrate and fat was calculated as a non-protein oxygen uptake, that is, a relative oxidation rate and an oxygen amount consumed per gram (g) of oxidized substrate.

[3] = test system: ovariectomized rats; assay: Serum triglyceride, glucose, insulin, cholesterol levels and HOMA-IR in overnight-fasted ovariectomized rats; details: n = 12, means ± SD
Description: In order to confirm efficacies of the Tetragonia tetragonoides (Pall.) Kuntze extract prepared according to Preparation Example 1 for ameliorating menopausal obesity, rats were ovariectomized and, at the same time, obesity-induced. The rats were fed with the Tetragonia tetragonoides (Pall.) Kuntze extract, and effects of the extract on obesity-related parameters in blood were evaluated. The ovariectomized rats were fed with the Tetragonia tetragonoides (Pall.) Kuntze by the method according to Example 1-1. Then, at the end of the experiment, the rats were fasted overnight and masses of serum glucose, insulin, and triglyceride were measured. Specifically, the rats were fasted for 16 hours, and then blood was collected from tails. Fasting serum glucose levels were measured by a Beckman glucometer and serum insulin concentrations were measured by radioimmunoassay. Fasting blood glucose, food and water intake, and body weight were measured at 10 a.m. on every Tuesday. Based on the above results, a homeostasis model assessment of insulin resistance (HOMA-IR) concentration which is used as a marker of insulin resistance was calculated, and the following Equation 1 was used for such calculation. HOMA-IR=fasting insulin(μIU/ml)×fasting glucose(mM)/22.5 [Equation 1]

[4] = test system: ovariectomized rats; assay: Evaluation on menopause inducement in ovariectomized rats (weight of uterus, serum 17β-estradiol by RIA kit); details: n = 12, means ± SD, Table 1
Description: Rats were ovariectomized to induce menopause, and weight of uterus and serum levels of 17β-estradiol that is a kind of female hormones were measured to determine whether menopause was induced in the rats. Specifically, the rats were sacrificed, and then their uteri were removed and weighed. A serum concentration of 17β-estradiol was measured with an RIA kit (Linco Research Inc.).

[5] = ovariectomized rats, high-fat diet, 8 weeks, n = 12, means ± SD
[6] = serum, overnight-fasted ovariectomized rats

C[C@]12CC[C@@H]3c4ccc(O)cc4CC[C@H]3[C@@H]1CC[C@@H]2O [Positive-control, 17β-estradiol] was tested, and the “weight of uterus (proliferation of uterus, side effect of hormone therapies)” value ([1]; in words) was “increase”, the Body weight ([1]; ovariectomized rats, high-fat diet with 2% (w/w) extract for 8 weeks (positive-control: 17β-estradiol), end of experiment, n = 12, means ± SD) was 369 ± 26^b g and the Body weight gain [1, 5] was 70.0 ± 11.5^c g. For the same compound, the Fat in retroperitoneum [1, 5] was 5.7 ± 1.6^c g, the Peri-uterine fat [1, 5] was 7.2 ± 1.6^d g and the Weight of uterus ([1]; ovariectomized rats, high-fat diet, 8 weeks, n = 12, means ± SD, Table 2) was 0.61 ± 0.22^a g. The Visceral fat ([1]; peri-uterine fat and fat in retroperitoneum, ovariectomized rats, high-fat diet, 8 weeks, n = 12, means ± SD) was 12.9 ± 2.6^c g, the Daily energy consumption ([2]; beginning of dark period) was 117 ± 15^a kcal/kg^0.75/day and the Carbohydrate oxidation [2] was 5.6 ± 0.7^b mg/kg^0.75/min. For the same compound, the Fat oxidation [2] was 6.9 ± 0.8^b mg/kg^0.75/min, the HOMA-IR ([3]; fasting insulin × fasting glucose / 22.5 (Equation 1)) was 6.8 ± 0.9^c and the Glucose levels ([3]; serum, overnight-fasted (16 hours) ovariectomized rats, end of experiment) was 109 ± 13^b mg/dL. For the same compound, the HDL cholesterol [3, 6] was 23.2 ± 1.5^a mg/dL, the Total cholesterol [3, 6] was 85.0 ± 7.6^c mg/dL and the Triglyceride levels [3, 6] was 65.7 ± 5.8^b mg/dL. The Insulin levels ([3]; serum, overnight-fasted ovariectomized rats, radioimmunoassay) was 1.14 ± 0.19^b ng/mL and the Weight of uterus [4] was 0.61 ± 0.22^a g.
